In ChEMBL document CHEMBL5338804 (J Med Chem, 2023):
Values after ≈ are worked out from the molar mass of the structure shown.

What was measured:
[1] = Protein binding in mouse brain assessed as unbound fraction at 1 uM incubated for 4 hrs by LC-MS analysis; format: ADME, tissue-based
[2] = target: Tyrosine-protein kinase SYK (Homo sapiens, UniProt P43405); test: Inhibition of SYK (unknown origin)
[3] = target: AP2-associated protein kinase 1 (Homo sapiens, UniProt Q2M2I8); test: Inhibition of AAK1 (unknown origin)
[4] = Drug uptake in brain of LaFerla 3x transgenic Alzheimer's disease C57BL/6 mouse model at 10 mg/kg, po measured after 5 hrs; format: ADME, organism-based; conditions: read-out: Drug uptake
[5] = target: Tyrosine-protein kinase BTK (Homo sapiens, UniProt Q06187); test: Inhibition of BTK (unknown origin)
[6] = target: MAP kinase-activated protein kinase 2 (Homo sapiens, UniProt P49137); test: Inhibition of MK2 (unknown origin)
MAP kinase-activated protein kinase 2, sequence (P49137 whole entry): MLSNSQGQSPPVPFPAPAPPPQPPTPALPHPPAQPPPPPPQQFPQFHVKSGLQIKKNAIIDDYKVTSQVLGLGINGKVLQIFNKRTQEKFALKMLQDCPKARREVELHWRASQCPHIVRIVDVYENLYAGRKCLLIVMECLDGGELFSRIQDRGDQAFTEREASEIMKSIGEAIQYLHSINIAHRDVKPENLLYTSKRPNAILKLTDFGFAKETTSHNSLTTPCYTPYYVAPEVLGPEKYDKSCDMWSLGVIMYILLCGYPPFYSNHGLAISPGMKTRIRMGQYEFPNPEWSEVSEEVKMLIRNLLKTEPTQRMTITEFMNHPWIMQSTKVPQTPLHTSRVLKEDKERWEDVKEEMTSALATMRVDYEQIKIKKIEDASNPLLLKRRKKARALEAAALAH

[7] = target: Mast/stem cell growth factor receptor Kit (Homo sapiens, UniProt P10721); test: Inhibition of c-Kit (unknown origin)
[8] = target: Cyclin-dependent kinase 5 (Homo sapiens, UniProt Q00535); test: Inhibition of CDK5 (unknown origin)
[9] = target: Serine/threonine-protein kinase pim-1 (Homo sapiens, UniProt P11309); test: Inhibition of PIM1 (unknown origin)
[10] = Permeability of the compound at 100 uM incubated for 4 hrs at pH 7.4 by PAMPA assay; format: ADME; conditions: read-out: permeability
[11] = target: Aurora kinase A (Mus musculus, UniProt P97477); test: Inhibition of mouse Aurora kinase A
[12] = target: Casein kinase I isoform alpha (Homo sapiens, UniProt P48729); test: Inhibition of CK1A1 (unknown origin)
[13] = Protein binding in human plasma assessed as unbound fraction at 10 uM incubated for 5 hrs by equilibrium dialysis method; format: ADME, cell-free
[14] = target: Interleukin-1 receptor-associated kinase 4 (Homo sapiens, UniProt Q9NWZ3); test: Inhibition of IRAK4 (unknown origin)
Interleukin-1 receptor-associated kinase 4, sequence (Q9NWZ3 whole entry): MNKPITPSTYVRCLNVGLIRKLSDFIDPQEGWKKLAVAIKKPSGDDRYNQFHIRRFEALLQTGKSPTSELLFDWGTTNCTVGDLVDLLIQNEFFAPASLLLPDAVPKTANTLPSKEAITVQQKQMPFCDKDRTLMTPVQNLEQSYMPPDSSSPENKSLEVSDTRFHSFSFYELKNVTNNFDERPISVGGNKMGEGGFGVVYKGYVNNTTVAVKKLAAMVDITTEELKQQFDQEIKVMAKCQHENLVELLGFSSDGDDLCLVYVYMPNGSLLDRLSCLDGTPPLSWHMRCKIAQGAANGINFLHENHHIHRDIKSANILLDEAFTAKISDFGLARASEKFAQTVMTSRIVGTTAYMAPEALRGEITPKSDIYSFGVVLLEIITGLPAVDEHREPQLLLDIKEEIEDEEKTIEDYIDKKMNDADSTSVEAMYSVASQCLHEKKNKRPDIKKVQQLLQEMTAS

[15] = target: Casein kinase II subunit alpha' (Homo sapiens, UniProt P19784); test: Inhibition of CK2A2 (unknown origin)
Casein kinase II subunit alpha', sequence (P19784 whole entry): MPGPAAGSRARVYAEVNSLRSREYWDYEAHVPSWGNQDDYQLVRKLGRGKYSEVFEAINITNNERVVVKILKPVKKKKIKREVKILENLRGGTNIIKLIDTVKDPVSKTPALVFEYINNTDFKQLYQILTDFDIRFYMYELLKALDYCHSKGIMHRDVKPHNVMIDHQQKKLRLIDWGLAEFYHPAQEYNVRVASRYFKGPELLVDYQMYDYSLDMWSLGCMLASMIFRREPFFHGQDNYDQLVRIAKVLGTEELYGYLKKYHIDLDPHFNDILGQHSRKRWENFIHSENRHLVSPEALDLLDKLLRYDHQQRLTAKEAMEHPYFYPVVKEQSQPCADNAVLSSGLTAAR

[16] = target: Mitogen-activated protein kinase 14 (Homo sapiens, UniProt Q16539); test: Inhibition of MAPK p38-alpha (unknown origin)
Mitogen-activated protein kinase 14, sequence (Q16539 whole entry): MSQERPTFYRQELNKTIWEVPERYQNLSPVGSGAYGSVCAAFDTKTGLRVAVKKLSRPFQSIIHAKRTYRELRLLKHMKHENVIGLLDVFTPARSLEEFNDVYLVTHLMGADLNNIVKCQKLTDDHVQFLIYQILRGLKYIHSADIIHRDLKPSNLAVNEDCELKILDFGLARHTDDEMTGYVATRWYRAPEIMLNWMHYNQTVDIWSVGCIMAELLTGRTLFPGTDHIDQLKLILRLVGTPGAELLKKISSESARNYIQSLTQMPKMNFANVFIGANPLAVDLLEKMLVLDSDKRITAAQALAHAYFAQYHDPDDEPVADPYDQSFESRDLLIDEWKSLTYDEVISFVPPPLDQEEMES

[17] = AUC (total) in C57BL/6 mouse at 10 mg/kg, po by LC-MS/MS analysis; format: ADME, organism-based; set-up: dose 10 mg/kg, route po; conditions: in vivo
[18] = target: Tyrosine-protein kinase Lck (Homo sapiens, UniProt P06239); test: Inhibition of LCK (unknown origin)
[19] = Volume of distribution at steady state in C57BL/6 mouse at 2 mg/kg, iv by LC-MS/MS analysis; format: ADME, organism-based; conditions: in vivo, read-out: Vdss
[20] = Metabolic stability in human liver microsomes assessed as parent compound remaining at 0.5 uM measured after 10 mins in presence of NADPH by LC-MS/MS analysis; format: ADME, Microsome; conditions: read-out: Stability
[21] = target: Glycogen synthase kinase-3 beta (Homo sapiens, UniProt P49841, H355L); test: Displacement of FL-KRREILSRRP[ps]ERYR-NH2 from human recombinant N-terminal His6-tagged GSK-3-beta (14 to 306 residues) H355L mutant expressed in baculovirus-infected Sf21 cells incubated for 20 hrs by fluorescence based analysis
[22] = Clearance in C57BL/6 mouse at 2 mg/kg, iv by LC-MS/MS analysis; format: ADME, organism-based; conditions: in vivo
[23] = target: Non-receptor tyrosine-protein kinase TYK2 (Homo sapiens, UniProt P29597); test: Inhibition of TYK2 (unknown origin)
Non-receptor tyrosine-protein kinase TYK2, sequence (P29597 whole entry): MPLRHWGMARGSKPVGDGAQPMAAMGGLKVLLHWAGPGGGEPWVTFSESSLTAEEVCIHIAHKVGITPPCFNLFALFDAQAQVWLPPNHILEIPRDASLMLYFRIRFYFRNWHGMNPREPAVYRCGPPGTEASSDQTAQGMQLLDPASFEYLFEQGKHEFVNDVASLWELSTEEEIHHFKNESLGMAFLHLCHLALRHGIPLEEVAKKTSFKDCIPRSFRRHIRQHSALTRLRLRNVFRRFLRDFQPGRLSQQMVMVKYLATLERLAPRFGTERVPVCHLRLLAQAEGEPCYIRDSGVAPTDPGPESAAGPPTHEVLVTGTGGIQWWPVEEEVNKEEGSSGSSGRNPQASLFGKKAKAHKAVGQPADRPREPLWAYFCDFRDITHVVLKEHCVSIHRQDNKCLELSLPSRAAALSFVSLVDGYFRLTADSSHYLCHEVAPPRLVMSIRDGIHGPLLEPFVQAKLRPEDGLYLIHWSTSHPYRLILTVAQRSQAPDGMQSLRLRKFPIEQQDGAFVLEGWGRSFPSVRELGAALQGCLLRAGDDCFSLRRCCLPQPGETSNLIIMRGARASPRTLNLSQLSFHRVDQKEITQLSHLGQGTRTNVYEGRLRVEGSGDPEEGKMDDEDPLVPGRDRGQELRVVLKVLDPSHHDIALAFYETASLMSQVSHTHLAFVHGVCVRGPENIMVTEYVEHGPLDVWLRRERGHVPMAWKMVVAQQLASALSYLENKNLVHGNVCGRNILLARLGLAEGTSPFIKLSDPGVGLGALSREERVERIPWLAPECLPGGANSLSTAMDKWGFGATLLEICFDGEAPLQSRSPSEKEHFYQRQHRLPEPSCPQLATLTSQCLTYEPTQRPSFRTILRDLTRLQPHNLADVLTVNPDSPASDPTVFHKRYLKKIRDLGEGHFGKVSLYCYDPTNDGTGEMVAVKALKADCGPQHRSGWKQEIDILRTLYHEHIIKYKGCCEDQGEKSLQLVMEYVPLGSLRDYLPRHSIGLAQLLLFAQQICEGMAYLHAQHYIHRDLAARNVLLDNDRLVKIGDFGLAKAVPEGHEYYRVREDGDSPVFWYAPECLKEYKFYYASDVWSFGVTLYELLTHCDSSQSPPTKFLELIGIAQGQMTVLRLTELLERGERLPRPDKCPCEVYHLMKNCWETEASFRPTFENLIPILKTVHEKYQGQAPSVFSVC

[24] = Protein binding in rat plasma assessed as unbound fraction at 10 uM incubated for 5 hrs by equilibrium dialysis method; format: ADME, cell-free
[25] = Thermodynamic aqueous solubility of the compound at pH 7.4 incubated for 18 to 24 hrs by HPLC-UV analysis; format: physicochemical; conditions: aqueous medium, time 18-24 hrs, read-out: Therm_solubility
[26] = target: Casein kinase II subunit alpha (Homo sapiens, UniProt P68400); test: Inhibition of CK2A1 (unknown origin)
[27] = Permeability of the compound from basolateral to apical side in human Caco-2 cells at 3 uM incubated for 2 hrs by LC-MS/MS analysis; format: ADME, cell-based; conditions: read-out: permeability
[28] = Permeability of the compound at 100 uM incubated for 4 hrs at pH 5.5 by PAMPA assay; format: ADME; conditions: read-out: permeability
[29] = Permeability of the compound from apical to basolateral side in human Caco-2 cells at 3 uM incubated for 2 hrs by LC-MS/MS analysis; format: ADME, cell-based; conditions: read-out: permeability
[30] = target: Cyclin-dependent kinase 2 (Homo sapiens, UniProt P24941); test: Inhibition of CDK2 (unknown origin)
[31] = target: Ribosomal protein S6 kinase alpha-1 (Homo sapiens, UniProt Q15418); test: Inhibition of RSK1 (unknown origin)
Ribosomal protein S6 kinase alpha-1, sequence (Q15418 whole entry): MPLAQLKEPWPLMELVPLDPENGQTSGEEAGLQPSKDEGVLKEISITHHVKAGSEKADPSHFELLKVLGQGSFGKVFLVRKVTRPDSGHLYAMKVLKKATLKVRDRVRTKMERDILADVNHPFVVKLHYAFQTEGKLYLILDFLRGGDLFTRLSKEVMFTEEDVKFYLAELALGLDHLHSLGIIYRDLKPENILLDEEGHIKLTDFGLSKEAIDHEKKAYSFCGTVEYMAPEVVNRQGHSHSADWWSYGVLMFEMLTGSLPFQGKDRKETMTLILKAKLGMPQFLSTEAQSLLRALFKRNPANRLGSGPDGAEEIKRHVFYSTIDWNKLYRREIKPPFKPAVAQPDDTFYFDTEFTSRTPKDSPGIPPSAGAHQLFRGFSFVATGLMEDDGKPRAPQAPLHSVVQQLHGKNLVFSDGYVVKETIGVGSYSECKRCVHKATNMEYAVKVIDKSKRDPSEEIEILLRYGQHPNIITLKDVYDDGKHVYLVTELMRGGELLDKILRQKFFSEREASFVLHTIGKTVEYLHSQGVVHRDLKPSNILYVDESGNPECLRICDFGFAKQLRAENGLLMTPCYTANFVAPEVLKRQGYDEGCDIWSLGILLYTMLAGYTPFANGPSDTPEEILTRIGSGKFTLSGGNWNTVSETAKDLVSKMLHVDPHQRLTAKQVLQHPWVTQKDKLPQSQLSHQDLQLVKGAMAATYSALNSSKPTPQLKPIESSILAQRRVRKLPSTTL

[32] = target: Platelet-derived growth factor receptor beta (Homo sapiens, UniProt P09619); test: Inhibition of PDGFR-beta (unknown origin)
[33] = target: Glycogen synthase kinase-3 alpha (Homo sapiens, UniProt P49840); test: Displacement of FL-KRREILSRRP[ps]ERYR-NH2 from human recombinant full length GST-tagged GSK-3-alpha expressed in insect cells incubated for 20 hrs by fluorescence based analysis; set-up: species or system Insect cell
[34] = target: Tyrosine-protein kinase JAK2 (Homo sapiens, UniProt O60674); test: Inhibition of JAK2 (unknown origin)
Tyrosine-protein kinase JAK2, sequence (O60674 whole entry): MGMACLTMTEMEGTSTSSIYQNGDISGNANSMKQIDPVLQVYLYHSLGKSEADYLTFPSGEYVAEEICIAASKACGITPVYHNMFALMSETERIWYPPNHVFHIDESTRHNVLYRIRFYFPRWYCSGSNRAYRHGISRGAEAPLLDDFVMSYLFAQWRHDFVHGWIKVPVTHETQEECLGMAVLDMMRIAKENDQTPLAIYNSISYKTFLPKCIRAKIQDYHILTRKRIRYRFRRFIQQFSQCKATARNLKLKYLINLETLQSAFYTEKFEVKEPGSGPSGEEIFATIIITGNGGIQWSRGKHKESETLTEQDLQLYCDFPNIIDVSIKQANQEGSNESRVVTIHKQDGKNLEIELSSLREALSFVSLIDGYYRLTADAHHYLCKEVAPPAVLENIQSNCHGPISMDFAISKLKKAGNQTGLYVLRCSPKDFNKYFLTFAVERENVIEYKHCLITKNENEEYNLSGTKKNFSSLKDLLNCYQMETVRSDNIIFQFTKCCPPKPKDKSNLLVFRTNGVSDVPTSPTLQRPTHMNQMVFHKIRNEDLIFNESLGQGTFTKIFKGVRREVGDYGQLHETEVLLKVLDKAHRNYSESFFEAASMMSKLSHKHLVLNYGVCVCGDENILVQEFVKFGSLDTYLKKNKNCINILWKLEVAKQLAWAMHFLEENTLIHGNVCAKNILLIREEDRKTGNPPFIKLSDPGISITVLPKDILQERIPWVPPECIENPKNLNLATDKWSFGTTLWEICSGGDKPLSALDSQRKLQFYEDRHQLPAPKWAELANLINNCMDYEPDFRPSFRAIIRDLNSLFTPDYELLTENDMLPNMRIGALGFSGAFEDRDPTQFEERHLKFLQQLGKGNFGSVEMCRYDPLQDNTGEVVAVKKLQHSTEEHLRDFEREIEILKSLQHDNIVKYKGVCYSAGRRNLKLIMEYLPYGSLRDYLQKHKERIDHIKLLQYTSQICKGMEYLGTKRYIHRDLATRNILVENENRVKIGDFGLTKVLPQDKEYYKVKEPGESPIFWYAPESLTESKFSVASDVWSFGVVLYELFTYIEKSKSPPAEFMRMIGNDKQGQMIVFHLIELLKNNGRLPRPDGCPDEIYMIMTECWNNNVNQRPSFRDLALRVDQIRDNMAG

[35] = Cmax in C57BL/6 mouse at 10 mg/kg, po by LC-MS/MS analysis; format: ADME, organism-based; set-up: dose 10 mg/kg, route po; conditions: in vivo
[36] = Protein binding in mouse plasma assessed as unbound fraction at 10 uM incubated for 5 hrs by equilibrium dialysis method; format: ADME, cell-free
[37] = Oral bioavailability in C57BL/6 mouse at 10 mg/kg by LC-MS/MS analysis; format: ADME, organism-based; conditions: in vivo
[38] = target: Glycogen synthase kinase-3 (Homo sapiens, UniProt P49840+P49841); test: Inhibition of GSK-3 in human U2OS cells transfected with beta-catenin GFP and 4R1N tau plasmid assessed as inhibition of Tau phosphorylation at Ser396 residues by high-content imaging assay; format: cell-based
[39] = target: Interleukin-1 receptor-associated kinase 1 (Homo sapiens, UniProt P51617); test: Inhibition of IRAK1 (unknown origin)
[40] = Metabolic stability in mouse liver microsomes assessed as parent compound remaining at 0.5 uM measured after 10 mins in presence of NADPH by LC-MS/MS analysis; format: ADME, Microsome; conditions: read-out: Stability
[41] = Ratio of drug concentration in brain to plasma in LaFerla 3x transgenic Alzheimer's disease C57BL/6 mouse model at 10 mg/kg, po measured after 5 hrs; format: ADME, organism-based; conditions: read-out: BPR
[42] = Half life in C57BL/6 mouse at 2 mg/kg, iv by LC-MS/MS analysis; format: ADME, organism-based; conditions: in vivo
[43] = target: Aurora kinase B (Homo sapiens, UniProt Q96GD4); test: Inhibition of Aurora kinase B (unknown origin)
Aurora kinase B, sequence (Q96GD4 whole entry): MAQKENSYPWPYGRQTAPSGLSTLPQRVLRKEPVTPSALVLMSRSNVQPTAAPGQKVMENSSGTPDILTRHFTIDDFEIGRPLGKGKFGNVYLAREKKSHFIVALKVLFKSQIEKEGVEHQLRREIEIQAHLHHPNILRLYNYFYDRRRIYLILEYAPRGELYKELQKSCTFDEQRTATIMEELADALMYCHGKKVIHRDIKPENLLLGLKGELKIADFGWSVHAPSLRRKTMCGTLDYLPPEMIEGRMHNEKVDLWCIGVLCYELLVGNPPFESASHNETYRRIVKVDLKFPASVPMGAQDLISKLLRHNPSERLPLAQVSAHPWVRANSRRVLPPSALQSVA

[44] = target: Protein kinase C theta type (Homo sapiens, UniProt Q04759); test: Inhibition of PKC theta (unknown origin)
[45] = Ratio of unbound drug concentration in mouse brain to plasma at 10 uM incubated for 5 hrs by equilibrium dialysis method; format: ADME, cell-free; conditions: read-out: K(p,uu,brain)
[46] = target: Tyrosine-protein kinase JAK1 (Homo sapiens, UniProt P23458); test: Inhibition of JAK1 (unknown origin)
[47] = MRT in C57BL/6 mouse at 2 mg/kg, iv by LC-MS/MS analysis; format: ADME, organism-based; conditions: in vivo
[48] = Thermodynamic aqueous solubility of the compound at pH 1 incubated for 18 to 24 hrs by HPLC-UV analysis; format: physicochemical; conditions: aqueous medium, time 18-24 hrs, read-out: Therm_solubility
[49] = Plasma concentration in LaFerla 3x transgenic Alzheimer's disease C57BL/6 mouse model at 10 mg/kg, po measured after 5 hrs; format: ADME, organism-based
[50] = Metabolic stability in rat liver microsomes assessed as parent compound remaining at 0.5 uM measured after 10 mins in presence of NADPH by LC-MS/MS analysis; format: ADME, Microsome; conditions: read-out: Stability

For `O=C(Nc1cnccc1-c1ccc(F)cc1)c1ccnc(Nc2ccc(F)cc2)n1`, the fraction unbound at 4 h, 1 µM [1] was 0.003, the IC50 [2] was 16 µM and the IC50 [3] was greater than 2 µM. It also gave a concentration at 5 h [4] of 180 nM, an IC50 [5] greater than 50 µM and an IC50 [6] greater than 27 µM. It also gave an IC50 [7] greater than 2 µM, an IC50 [8] of 0.68 µM and an IC50 [9] of 1.4 µM. For the same molecule, the Papp at 4 h, 100 µM [10] was 59 ×10⁻⁶ cm/s, the IC50 [11] was greater than 50 µM and the IC50 [12] was greater than 2 µM. The fraction unbound at 5 h, 10 µM [13] was 0.002, the IC50 [14] was greater than 23 µM and the IC50 [15] was greater than 2 µM. The IC50 [16] was greater than 50 µM, the AUC [17] was 11.7 µM·h and the IC50 [18] was greater than 2 µM. For the same molecule, the Vd [19] was 2.6 L/kg, the remaining at 10 min, 0.5 µM [20] was 67% and the IC50 [21] was 0.00056 µM. The clearance [22] was 18.9 mL/min/kg, the IC50 [23] was 17 µM and the fraction unbound at 5 h, 10 µM [24] was 0.007. For the same molecule, the solubility thermodynamic [25] was 1 µg/mL (≈ 2.48 µM), the IC50 [26] was greater than 50 µM and the Papp B→A at 2 h, 3 µM [27] was 4.4 ×10⁻⁶ cm/s. It also gave a Papp at 4 h, 100 µM [28] of 62 ×10⁻⁶ cm/s, a Papp A→B at 2 h, 3 µM [29] of 11.8 ×10⁻⁶ cm/s and an IC50 [30] of 0.47 µM. It also gave an IC50 [31] greater than 50 µM, an IC50 [32] greater than 50 µM and an IC50 [33] of 0.00045 µM. It also gave an IC50 [34] of 14 µM, a Cmax [35] of 1500 nM and a fraction unbound at 5 h, 10 µM [36] of 0.008. It also gave a bioavailability [37] of 53%, an IC50 [38] of 0.034 µM and an IC50 [39] greater than 2 µM. It also gave a remaining at 10 min, 0.5 µM [40] of 54%, a Kp at 5 h [41] of 1 and a half-life [42] of 2.8 h. The IC50 [43] was 11 µM, the IC50 [44] was 10.4 µM and the Kp uu at 5 h, 10 µM [45] was 0.4. The IC50 [46] was greater than 50 µM, the MRT [47] was 2.3 h and the solubility thermodynamic [48] was 31 µg/mL (≈ 76.8 µM). The concentration at 5 h [49] was 180 nM and the remaining at 10 min, 0.5 µM [50] was 10%.
